Measured values: patent publication US8178506B2, “Oligomeric compounds and compositions for use in modulation of small non-coding RNAs” (Regulus Therapeutics Inc., priority 2003, dated 2012)
In the oligonucleotide strings, read from the 5' end, every base follows the letter of its sugar. An asterisk marks phosphorothioate; unmarked linkages are phosphodiester. Other units and linkages are bracketed, terminal groups are in braces. A string of capitals states the bases alone. e = 2'-O-(2-methoxyethyl) (MOE); [5mC] = 5-methylcytosine; d = 2'-deoxy (DNA)

Assays:
[1] = system: PPARγ; assay: PPARγ mRNA expression in adipocytes (real-time PCR); format: cell-based, human; settings: for PPAR gamma (mRNA expression): adipocytes, 250 nM oligomeric compound, day nine post-transfection, relative to control (1.0)
[2] = system: adipocytes; assay: Triglyceride accumulation assay in adipocytes; format: cell-based, human
[3] = system: Glut4; assay: Glut4 mRNA expression in adipocytes (real-time PCR); format: cell-based, human; settings: for Glut4 (mRNA expression): adipocytes, 250 nM oligomeric compound, day nine post-transfection, relative to control (1.0)
[4] = system: aP2; assay: aP2 mRNA expression in adipocytes (real-time PCR); format: cell-based, human; settings: for aP2 mRNA: Table 75; for AP2 (mRNA expression): adipocytes, 250 nM oligomeric compound, day nine post-transfection, relative to control (1.0)
[5] = system: HuVECs; assay: Endothelial tube formation assay in HuVECs; settings: 75 nM oligomeric compound
[6] = system: HSL; assay: HSL mRNA expression in adipocytes (real-time PCR); format: cell-based, human; settings: for HSL (mRNA expression): adipocytes, 250 nM oligomeric compound, day nine post-transfection, relative to control (1.0)
[7] = differentiating adipocytes transfected with oligomeric compound, Table 75
[8] = differentiating adipocytes transfected with oligomeric compound
[9] = adipocytes, 250 nM oligomeric compound, relative to control (1.0), Table 15
[10] = adipocytes, 250 nM oligomeric compound, relative to control (1.0), Table 16
[11] = Table 18, differentiating adipocytes, control = treatment with ISIS 342673
[12] = Table 17, differentiating adipocytes, control = treatment with ISIS 342673
[13] = Table 20, adipocyte differentiation assay as in Example 13

327910 (antisense eT*eG*eA*eT*eA*eG*e[5mC]*e[5mC]*e[5mC]*eT*eG*eT*eA*e[5mC]*eA*eA*eT*eG*e[5mC]*eT*eG*e[5mC]*eT) [compound 327910]
PPAR gamma mRNA [1, 7]: 39 percentage of untreated control (UTC)
TG (triglyceride accumulation) [2, 7]: 24 percentage of untreated control (UTC)
GLUT4 mRNA [3, 7]: 16 percentage of untreated control (UTC)
aP2 mRNA [4, 8]: 35 percentage of untreated control (UTC)
% Activity Relative to UTC (tube formation) ([5]; Table 57): 55.2%
HSL mRNA [6, 7]: 32 percentage of untreated control (UTC)

327887 (antisense eG*e[5mC]*eG*eA*e[5mC]*e[5mC]*eA*eT*eG*eG*e[5mC]*eT*eG*eT*eA*eG*eA*e[5mC]*eT*eG*eT*eT*eA) [compound 327887]
PPAR gamma mRNA [1, 7]: 81 percentage of untreated control (UTC)
TG (triglyceride accumulation) [2, 7]: 54 percentage of untreated control (UTC)
GLUT4 mRNA [3, 7]: 43 percentage of untreated control (UTC)
aP2 mRNA [4, 8]: 60 percentage of untreated control (UTC)
% Activity Relative to UTC (tube formation) ([5]; Table 56): 57.1%
HSL mRNA [6, 7]: 53 percentage of untreated control (UTC)

327889 (antisense eG*eT*eG*eG*eT*eA*eA*eT*e[5mC]*e[5mC]*e[5mC]*eT*eG*eG*e[5mC]*eA*eA*eT*eG*eT*eG*eA*eT) [compound 327889]
PPAR gamma (mRNA expression) ([1]; Table 15): 0.71
PPAR gamma (mRNA expression) ([1]; Table 16): 0.82
TG (triglyceride accumulation) [2, 9]: 0.47
TG (triglyceride accumulation) [2, 10]: 0.46
Glut4 (mRNA expression) ([3]; Table 15): 0.55
Glut4 (mRNA expression) ([3]; Table 16): 0.46
AP2 (mRNA expression) ([4]; Table 15): 0.69
AP2 (mRNA expression) ([4]; Table 16): 0.57
% Activity Relative to UTC (tube formation) ([5]; Table 56): 50.0%
HSL (mRNA expression) ([6]; Table 15): 0.59
HSL (mRNA expression) ([6]; Table 16): 0.54

327931 (antisense eA*eA*e[5mC]*e[5mC]*eA*eT*eA*e[5mC]*eA*eA*e[5mC]*e[5mC]*eT*eA*e[5mC]*eT*eA*e[5mC]*e[5mC]*eT*e[5mC]*eA) [compound 327931]
PPAR gamma (mRNA expression) ([1]; Table 16): 1.56
TG (triglyceride accumulation) [2, 10]: 1.11
Glut4 (mRNA expression) ([3]; Table 16): 1.37
AP2 (mRNA expression) ([4]; Table 16): 1.00
% Activity Relative to UTC (tube formation) ([5]; Table 58): 103.7%
HSL (mRNA expression) ([6]; Table 16): 0.99

327922 (antisense eT*e[5mC]*eA*eG*eT*eT*eT*eT*eG*e[5mC]*eA*eT*eG*eG*eA*eT*eT*eT*eG*e[5mC]*eA*e[5mC]*eA) [compound 327922]
PPAR gamma (mRNA expression) ([1]; Table 15): 1.37
PPAR gamma (mRNA expression) ([1]; Table 16): 0.80
TG (triglyceride accumulation) [2, 9]: 1.09
TG (triglyceride accumulation) [2, 10]: 0.43
Glut4 (mRNA expression) ([3]; Table 15): 1.75
Glut4 (mRNA expression) ([3]; Table 16): 0.43
AP2 (mRNA expression) ([4]; Table 15): 0.99
AP2 (mRNA expression) ([4]; Table 16): 0.75
% Activity Relative to UTC (tube formation) ([5]; Table 57): 89.7%
HSL (mRNA expression) ([6]; Table 15): 0.95
HSL (mRNA expression) ([6]; Table 16): 0.72

327876 (antisense eA*eA*e[5mC]*eA*e[5mC]*eT*eG*eA*eT*eT*eT*e[5mC]*eA*eA*eA*eT*eG*eG*eT*eG*e[5mC]*eT*eA) [compound 327876]
PPAR gamma (mRNA expression) ([1]; Table 15): 0.57
TG (triglyceride accumulation) [2, 9]: 0.47
Glut4 (mRNA expression) ([3]; Table 15): 0.36
AP2 (mRNA expression) ([4]; Table 15): 0.75
% Activity Relative to UTC (tube formation) ([5]; Table 56): 50.0%
HSL (mRNA expression) ([6]; Table 15): 0.47

327912 (antisense eA*eA*e[5mC]*eT*eA*eT*eA*e[5mC]*eA*eA*eT*e[5mC]*eT*eA*e[5mC]*eT*eA*e[5mC]*e[5mC]*eT*e[5mC]*eA) [compound 327912]
PPAR gamma mRNA [1, 11]: 76.9 percentage of control
PPAR gamma mRNA [1, 7]: 78 percentage of untreated control (UTC)
TG (triglyceride accumulation) [2, 11]: 107.4 percentage of control
TG (triglyceride accumulation) [2, 7]: 112 percentage of untreated control (UTC)
GLUT4 mRNA [3, 11]: 89.0 percentage of control
GLUT4 mRNA [3, 7]: 79 percentage of untreated control (UTC)
AP2 mRNA [4, 11]: 90.1 percentage of control
aP2 mRNA [4, 8]: 101 percentage of untreated control (UTC)
HSL mRNA [6, 11]: 90.6 percentage of control
HSL mRNA [6, 7]: 95 percentage of untreated control (UTC)

341804 (antisense ATCTGCACTGTCAGCACTTT; all 2'-MOE, all phosphorothioate, methylation of C not given here) [compound 341804]
PPAR gamma mRNA [1, 11]: 74.1 percentage of control
PPAR gamma mRNA [1, 7]: 71 percentage of untreated control (UTC)
TG (triglyceride accumulation) [2, 11]: 60.9 percentage of control
GLUT4 mRNA [3, 11]: 73.6 percentage of control
GLUT4 mRNA [3, 7]: 62 percentage of untreated control (UTC)
AP2 mRNA [4, 11]: 70.8 percentage of control
aP2 mRNA [4, 8]: 78 percentage of untreated control (UTC)
HSL mRNA [6, 11]: 71.6 percentage of control
HSL mRNA [6, 7]: 75 percentage of untreated control (UTC)

328138 (eG*eA*eG*e[5mC]*eT*eG*e[5mC]*eT*e[5mC]*eA*eG*e[5mC]*eT*eG*eG*e[5mC]*e[5mC]*eA*eT*e[5mC]*eA; anti-miR) [compound 328138]
PPAR gamma mRNA [1, 12]: 83.8 percentage of control
PPAR gamma mRNA [1, 7]: 63 percentage of untreated control (UTC)
TG (triglyceride accumulation) [2, 12]: 100.6 percentage of control
TG (triglyceride accumulation) [2, 7]: 80 percentage of untreated control (UTC)
GLUT4 mRNA [3, 12]: 86.8 percentage of control
GLUT4 mRNA [3, 7]: 52 percentage of untreated control (UTC)
AP2 mRNA [4, 12]: 85.3 percentage of control
aP2 mRNA [4, 8]: 52 percentage of untreated control (UTC)
HSL mRNA [6, 12]: 89.8 percentage of control
HSL mRNA [6, 7]: 56 percentage of untreated control (UTC)

328382 (e[5mC]*eA*eG*eA*e[5mC]*dT*d[5mC]*d[5mC]*d[5mC]*dA*dA*d[5mC]*dT*dG*dA*e[5mC]*e[5mC]*eA*eG*eA) [compound 328382]
PPAR gamma [1, 13]: 0.96
TG [2, 13]: 0.72
Glut4 [3, 13]: 0.85
AP2 [4, 13]: 0.89
HSL [6, 13]: 0.75

328123 (antisense eT*eT*eA*e[5mC]*eA*eG*eG*eT*eG*e[5mC]*eT*eG*e[5mC]*eA*eA*e[5mC]*eT*eG*eG*eA*eA) [compound 328123]
PPAR gamma mRNA [1, 12]: 74.7 percentage of control
PPAR gamma mRNA [1, 7]: 88 percentage of untreated control (UTC)
TG (triglyceride accumulation) [2, 12]: 120.8 percentage of control
TG (triglyceride accumulation) [2, 7]: 54 percentage of untreated control (UTC)
GLUT4 mRNA [3, 12]: 162.4 percentage of control
GLUT4 mRNA [3, 7]: 129 percentage of untreated control (UTC)
AP2 mRNA [4, 12]: 106.7 percentage of control
aP2 mRNA [4, 8]: 119 percentage of untreated control (UTC)
HSL mRNA [6, 12]: 85.4 percentage of control
HSL mRNA [6, 7]: 91 percentage of untreated control (UTC)

340350 (antisense TGCTCAATAAATACCCGTTGAA; all 2'-MOE, all phosphorothioate, methylation of C not given here) [compound 340350]
PPAR gamma mRNA [1, 7]: 59 percentage of untreated control (UTC)
TG (triglyceride accumulation) [2, 7]: 38 percentage of untreated control (UTC)
GLUT4 mRNA [3, 7]: 53 percentage of untreated control (UTC)
aP2 mRNA [4, 8]: 64 percentage of untreated control (UTC)
HSL mRNA [6, 7]: 45 percentage of untreated control (UTC)

328691 (e[5mC]*e[5mC]*e[5mC]*e[5mC]*eA*dT*d[5mC]*dT*dT*dA*dG*d[5mC]*dA*dT*d[5mC]*eT*eA*eA*eG*eG) [compound 328691]
PPAR gamma mRNA [1, 8]: 105 percentage of untreated control (UTC)
TG (triglyceride accumulation) [2, 8]: 130 percentage of untreated control (UTC)
GLUT4 mRNA [3, 8]: 144 percentage of untreated control (UTC)
AP2 mRNA [4, 8]: 166 percentage of untreated control (UTC)
HSL mRNA [6, 8]: 156 percentage of untreated control (UTC)
